The nature of the assay: Serum uric acid level in rabbits (unpublished observations, 1998). It counts as in vivo. The conditions noted are these: oral dose of 10 mg/kg. The source says:
The procedures used in this study were reviewed and approved by the Institutional Animal Care and Use Committee (IACUC) of QTest Labs for compliance with regulations and current accepted practices. All applicable sections of the Final Rules of the Animal Welfare Act regulations (Section 9 CFR) and the Public Health Service Policy on Humane Care and Use of Laboratory Animals (OPRR, NIH, 1986) were followed. At the end of the study, all animals were humanely euthanized in accordance with accepted guidelines of the American Veterinary Medical Association (See, American Veterinary Medicine Association (AVMA), 2000 Report of the AVMA Panel on Euthanasia, The Journal of the American Veterinary Medical Association, 218(5):669-696 (2001)). • Drugs Febuxostat and allopurinol (Sigma-Aldrich, St. Louis, Mo., USA) were each formulated as a suspension in 0.5% methylcellulose (Sigma-Aldrich, St. Louis, Mo.) as the vehicle. The febuxostat oral dose of 10 mg/kg was estimated to provide a similar plasma level of febuxostat as the clinically efficacious dose (See, Khosravan et al., Clinical Pharmacokinetics, 45(8):821-841 (2006)). […] Allopurinol was given orally at 60 mg/kg. […] The rabbits were anesthetized with an intramuscular injection of ketamine (35 mg/kg)/xylazine (5 mg/kg) and pre-surgery enrofloxacin (12 mg/kg). […]

As for `Cc1nc(-c2ccc(OCC(C)C)c(C#N)c2)sc1C(=O)O` [febuxostat, 2-[3-cyano-4-(2-methylpropoxy)phenyl]-4-methylthiazole-5-carboxylic acid], the “Serum uric acid level” value is recorded as “significant reduction”.

The record behind these values is patent US20100311756A1, “METHODS FOR DELAYING THE PROGRESSION OF AT LEAST ONE OF CARDIAC HYPERTROPHY, CARDIAC REMODELING OR LEFT VENTRICULAR FUNCTION OR THE ONSET OF HEART FAILURE IN SUBJECTS IN NEED OF TREATMENT THEREOF” (TAKEDA PHARMACEUTICALS NORTH AMERICA, INC., priority 2009, published 2010).
